Laboratory results reported in patent US4313943A, “7-Chloro-2,3-dihydro-5-phenyl-1-propargyl-1H-1,4-benzodiazepine-2-one, and a pharmaceutical composition thereof” (priority 1972, dated 1982).
Where “and” joins values, the source holds several entries; their conditions need not be identical. Identical values can stand only once. Entries after “also recorded” stand apart in the source; their conditions may differ.

Columns and labels:
[1] = Hypnotic activity comparison (Janssen 1959); assay type: in vivo
Experimental: Toxicity in test animals to the test compounds in terms of LD50 after oral and intraperitoneal administration was determined according to the procedure of Litchfield and Wilcoxan (1949) and the hypnotic effect on test animals was determined in accordance with the method of Janssen (1959).

[2] = Conditioned avoidance response (shuttle box); assay type: in vivo; conditions: for Number of Conditioned Avoidance Responses: CMC 1% 16.7 ± 0.3
Experimental: Conditioned avoidance response by trained animals in a conventional shuttle box procedure was determined after oral administration of Compounds 1 and 4.

[3] = Cortical and hippocampal arousal thresholds on stimulation of MRF, median thalamus and posterior hypothalamus; assay type: in vivo; conditions: 7.5 mg/kg intragastric
Experimental: The test animals in this study were prepared by the techniques described by Monnier and Gangloff under the preceding study (infra B, page 30). Stimulation consisted of a series of waves delivered at a frequency of 200 c/sec., lasting 0.3 m sec., with a total duration of the stimulus being 5 sec. These shocks were delivered by a Neurovar neurostimulator (Alvar Electronic) coupled with a CRC cathode oscilloscope (type OC 343). Cerebral electrical activity was recorded on a REEGA MINI HUIT electroencephalograph (Alvar Electronic). The test animals were kept in restraint cages in a relatively soundproof room.
The activity of compounds 1 and 4 was tested in a series of six test animals for each compound, with a single dose of 7.5 mg/kg administered by the intragastric route. In each animal, the arousal threshold was determined for two of the three structures tested so that for each compound, each of the three structures stimulated were tested four times.
In making the baseline tracing, the threshold voltage was determined by a finding that the duration of the arousal reaction produced by the 5-second stimulation exceeded the duration of the stimulation by at least 5 seconds, that is, for a minimum of 10 seconds.
The various thresholds were determined every 45 minutes after administration of the compounds, for a total period of four and one-half hours.
The critical value for raising of a threshold was fixed at 0.1 volts. This constituted the maximum variation recorded during 41/2 hours in the control animals.
The results were taken in two forms and then summarized. In the first result, each animal was observed, yielding the values for the thresholds recorded at each time interval as well as the ratios of the values obtained in each of the stimulated structures.

[4] = Myorelaxant activity in the mouse (traction test); assay type: in vivo
Experimental: This was determined by the traction test of Joulon Courvoisier, following Boissier and Simon, in which the mouse is suspended by its front paws to a horizontal metal wire, and the animal's capacity to get up with its hind paws is observed. The test compounds were administered orally to the animals, in the doses shown in Table 5, as suspensions in 1% sodium carboxymethyl cellulose solution; and the animals were tested 30 minutes and 180 minutes after administration. The test animals were deemed to be myorelaxant if unable to get up within 5 seconds.

[5] = Convulsions induced by pentamethylenetetrazol in rats; assay type: in vivo; conditions: for ED50: Rattus norvegicus, oral, protection against pentamethylenetetrazol, read-out: ED50 (and C.L.) (converted)
Experimental: The method utilized was according to the method published by Everett and Richards (1944) and Banziger (1965). The pentamethylenetetrazol was given subcutaneously (125 mg/kg) and the test compounds were given orally suspended in a 1% carboxymethyl cellulose solution.

[6] = Acute toxicity in the mouse (oral); conditions: in vivo, mouse (male)
Experimental: (§1) The test compounds shown in Table 2 were administered orally to male mice and rats in the form of a suspension in a 1% solution of sodium carboxymethyl cellulose. The LD50 (lethal dose 50%) was calculated by the method of Litchfield and Wilcoxon.

[7] = Reduction in motor activity between 60 and 90 minutes; assay type: in vivo; conditions: for Reduction in Motor Activity Between 60 and 90 Minutes: significance NS (comp. 1), 0.002 (comp. 4); for changes in motor activity / voluntary motility: in vivo
[8] = Conditioned emotional response (CER), tone paired with foot shock; assay type: in vivo
Experimental: Conditioned emotional response (CER) in test animals was conventionally determined by a tone paired with a foot shock which was presented to hungry animals trained to press a lever for intermittent food reinforcement. After a few such pairings, the presence of the tone alone was sufficient to disrupt the lever pressing behavior. CER is considered a model of behavior anxiety in animals. […] Thus, a 1.25 mg/kg os of compounds 1 and 4 respectively produced about a 350 and 630% increase in CER while a 5 mg/kg os of compounds 1 and 4 respectively produced about 920 and 1600% increase.

[9] = Acute toxicity in the rat (oral); conditions: in vivo
Experimental: as §1

[10] = tested on: posterior amygdaloid complex; assay: Amygdaloid after-discharge (stimulation of posterior amygdaloid complex); assay type: in vivo; conditions: 7.5 mg/kg intragastric; for Duration of Amygdaloid After-Discharge: individual animals
Experimental: The test animals for this study were also prepared according to the technique described by Monnier and Gangloff (infra B, page 30) and the animals were kept in restraint cages in a relatively soundproof room.
The activity of test compounds 1 and 4 was assessed in identical groups of test animals for each compound, with identical numbers of animals for hippocampal after-discharges and for amygdaloid after-discharges. A dose of 7.5 mg/kg of each test compound was adminstered by the intragastric route. In each animal, after-discharges were triggered every 45 minutes after the administration of a test compound.
The stimulation consisted of a series of waves with a duration of 3 m sec., delivered at a frequency of 40 c/sec., with 5 seconds as the total duration of the stimulation. The shocks were delivered by a Neurovar neurostimulator (Alvar Electronic), coupled to a CRC cathode oscilloscope (type OC 343). Cerebral electric activity was recorded by REEGA MINI HUIT electroencephalograph (Alvar Electronic).

[11] = Posterior hypothalamus stimulation

SMILES: C#CCN1C(=O)CN=C(c2ccccc2)c2cc(Cl)ccc21 [Compound 1, 7-chloro-2,3-dihydro-5-phenyl-1-propargyl-1H-1,4-benzodiazepin-2-one]
- ED50 ([1]; Table 11, species not given): 857 mg/kg
- hypnotic activity compared with Compounds 3 or 4 ([1]; in vivo): lower hypnotic activity
- % Decrease (conditioned avoidance responses) ([2]; 5 mg/kg oral): -12%
- Number of Conditioned Avoidance Responses ([2]; 5 mg/kg oral): 14.5 ± 0.7
- % Decrease (conditioned avoidance responses) ([2]; 10 mg/kg oral): -19%
- Number of Conditioned Avoidance Responses ([2]; 10 mg/kg oral): 13.4 ± 0.7
- % Decrease (conditioned avoidance responses) ([2]; 20 mg/kg oral): -17%
- Number of Conditioned Avoidance Responses ([2]; 20 mg/kg oral): 13.7 ± 0.9
- % Decrease (conditioned avoidance responses) ([2]; 40 mg/kg oral): -44%
- Number of Conditioned Avoidance Responses ([2]; 40 mg/kg oral): 9.3 ± 1.5
- activity in reducing conditioned avoidance responses compared with Compound 2 ([2]; in vivo): less active than Compound 2
- effect on arousal pathways (in words) [3]: preferentially reduces the excitability of the hypothalamo-cortical and hippocampal pathways; also recorded: moderately reduced in duration
- % of Mean Variation of arousal threshold, Cortex ([3]; MRF stimulation): +57%
- % of Mean Variation of arousal threshold, Hippocampus ([3]; MRF stimulation): +50%
- % of Mean Variation of arousal threshold, Cortex ([3]; Median Thalamus stimulation): +67%
- % of Mean Variation of arousal threshold, Hippocampus ([3]; Median Thalamus stimulation): +73%
- % of Mean Variation of arousal threshold, Cortex ([3]; Posterior Hippocampus): +83%
- % of Mean Variation of arousal threshold, Hippocampus [3, 11]: +78%
- Percentage of myorelaxant animals ([4]; 1.5 mg/kg oral, after 30 minutes): 20%
- Percentage of myorelaxant animals ([4]; 1.5 mg/kg oral, after 180 minutes): 15%
- Percentage of myorelaxant animals ([4]; 3.0 mg/kg oral, after 30 minutes): 60%
- Percentage of myorelaxant animals ([4]; 3.0 mg/kg oral, after 180 minutes): 55%
- Percentage of myorelaxant animals ([4]; 6.0 mg/kg oral, after 30 minutes): 80%
- Percentage of myorelaxant animals ([4]; 6.0 mg/kg oral, after 180 minutes): 70%
- % Protected Animals ([5]; 5 mg/kg/os, pentamethylenetetrazol 125 mg/kg s.c.): 10%
- % Protected Animals ([5]; 10 mg/kg/os, pentamethylenetetrazol 125 mg/kg s.c.): 50%
- % Protected Animals ([5]; 20 mg/kg/os, pentamethylenetetrazol 125 mg/kg s.c.): 80%
- ED50 [5]: 10.6 mg/kg
- % Protected Animals ([5]; Time 90 min.): 48%
- % Protected Animals ([5]; Time 120 min.): 46%
- % Protected Animals ([5]; Time 180 min.): 37%
- % Protected Animals ([5]; Time 240 min.): 10%
- duration of protection against pentamethylenetetrazol compared with compounds 3 or 4 ([5]; rat, in vivo): protects against pentamethylenetetrazol for longer periods of time than compounds 3 or 4
- LD50 [6]: 1300 mg/kg
- Reduction in Motor Activity Between 60 and 90 Minutes ([7]; 1 mg/kg): +19%
- Reduction in Motor Activity Between 60 and 90 Minutes ([7]; 3 mg/kg): -20%
- changes in motor activity / voluntary motility [7]: does not produce changes in motor activity
- increase in CER ([8]; 1.25 mg/kg os): ~350%
- increase in CER ([8]; 5 mg/kg os): about 920%
- activity in antagonizing tone-induced disruption compared with Compound 4 ([8]; in vivo): about twice as active as Compound 4
- LD50 [9]: 6490 mg/kg
- effect on amygdaloid after-discharge [10]: lasting inhibitory effect; also recorded: slightly more pronounced
- Duration of Amygdaloid After-Discharge ([10]; 45 Mins.): 15 s and 0 s and 35 s and 22 s
- Duration of Amygdaloid After-Discharge ([10]; 90 Mins.): 17 s and 0 s and 27 s
- Duration of Amygdaloid After-Discharge ([10]; 135 Mins.): 46 s and 0 s and 37 s
- Duration of Amygdaloid After-Discharge ([10]; 180 Mins.): 17 s and 0 s and 34 s
- Duration of Amygdaloid After-Discharge ([10]; 225 Mins.): 42 s and 46 s and 0 s and 35 s
- Duration of Amygdaloid After-Discharge ([10]; 270 Mins.): 45 s and 62 s and 0 s and 30 s

SMILES: C#CCN1C(=O)CN=C(c2ccccc2Cl)c2cc(Cl)ccc21 [Compound 4, 7-chloro-2,3-dihydro-5-(2-chlorophenyl)-1-propargyl-1,H-1,4-benzodiazepine-2-one]
- % Decrease (conditioned avoidance responses) ([2]; 5 mg/kg oral): -44%
- Number of Conditioned Avoidance Responses ([2]; 5 mg/kg oral): 9.2 ± 1.4
- % Decrease (conditioned avoidance responses) ([2]; 10 mg/kg oral): -85%
- Number of Conditioned Avoidance Responses ([2]; 10 mg/kg oral): 2.5 ± 1.5
- effect on arousal pathways (in words) [3]: substantially raised the cortical and hippocampal arousal thresholds following stimulation of the reticular formation of the brain stem; also recorded: posterior hypothalamus appeared to be little affected; also recorded: moderately reduced in duration
- % of Mean Variation of arousal threshold, Cortex ([3]; MRF stimulation): +311%
- % of Mean Variation of arousal threshold, Hippocampus ([3]; MRF stimulation): +308%
- % of Mean Variation of arousal threshold, Cortex ([3]; Median Thalamus stimulation): +67%
- % of Mean Variation of arousal threshold, Hippocampus ([3]; Median Thalamus stimulation): +67%
- % of Mean Variation of arousal threshold, Cortex ([3]; Posterior Hippocampus): +56%
- % of Mean Variation of arousal threshold, Hippocampus [3, 11]: +60%
- % Protected Animals ([5]; 6 mg/kg/os, pentamethylenetetrazol 125 mg/kg s.c.): 20%
- % Protected Animals ([5]; 8.5 mg/kg/os, pentamethylenetetrazol 125 mg/kg s.c.): 60%
- % Protected Animals ([5]; 12 mg/kg/os, pentamethylenetetrazol 125 mg/kg s.c.): 70%
- ED50 [5]: 8.5 mg/kg
- % Protected Animals ([5]; Time 90 min.): 37%
- % Protected Animals ([5]; Time 120 min.): 18%
- % Protected Animals ([5]; Time 180 min.): 0%
- % Protected Animals ([5]; Time 240 min.): 0%
- Reduction in Motor Activity Between 60 and 90 Minutes ([7]; 1 mg/kg): -69%
- Reduction in Motor Activity Between 60 and 90 Minutes ([7]; 3 mg/kg): -82%
- changes in motor activity / voluntary motility [7]: reduces voluntary motility
- increase in CER ([8]; 1.25 mg/kg os): ~630%
- increase in CER ([8]; 5 mg/kg os): ~1600%
- effect on amygdaloid after-discharge [10]: lasting inhibitory effect
- Duration of Amygdaloid After-Discharge ([10]; 45 Mins.): 29 s and 43 s and 30 s and 35 s
- Duration of Amygdaloid After-Discharge ([10]; 90 Mins.): 32 s and 46 s and 33 s and 40 s and 16 s
- Duration of Amygdaloid After-Discharge ([10]; 135 Mins.): 35 s and 27 s and 40 s and 26 s
- Duration of Amygdaloid After-Discharge ([10]; 180 Mins.): 33 s and 29 s and 48 s
- Duration of Amygdaloid After-Discharge ([10]; 225 Mins.): 37 s and 35 s and 34 s and 41 s
- Duration of Amygdaloid After-Discharge ([10]; 270 Mins.): 38 s and 42 s and 37 s and 39 s and 50 s
